# Earlier results, collected in PMC5812370 (Biochemistry, 2017).
# Assays:
# [1] = biological target: uPAR·uPA protein–protein interaction (Homo sapiens, UniProt Q03405)
# uPAR = uPAR (Homo sapiens, UniProt Q03405)
# Chain of uPAR (Q03405 23-305 limits assumed): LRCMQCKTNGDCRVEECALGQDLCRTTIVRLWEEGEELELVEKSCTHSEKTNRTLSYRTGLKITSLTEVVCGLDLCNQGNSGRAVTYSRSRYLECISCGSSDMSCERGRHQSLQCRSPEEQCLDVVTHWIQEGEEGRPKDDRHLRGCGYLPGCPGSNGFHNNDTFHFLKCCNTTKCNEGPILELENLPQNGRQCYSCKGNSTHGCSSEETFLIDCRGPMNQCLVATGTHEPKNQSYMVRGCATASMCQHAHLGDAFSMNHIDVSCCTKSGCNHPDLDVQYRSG
# Chain of uPAR·uPA protein–protein interaction (Q03405 23-305 limits assumed): as above
compound,measurement,setting,value
O=C(O)c1cccc(Nc2cc(N3CCCCCC3)c3noc4c3c2C(=O)c2ccccc2-4)c1 [Compound 2],IC50 for inhibition of the uPAR·uPA complex (in words),[1],single-digit micromolar
same,binding affinity to uPAR (in words),uPAR,submicromolar
